Laboratory results reported in patent publication US20220089575A1, “FARNESOID X RECEPTOR AGONISTS AND USES THEREOF” (Metacrine, Inc., priority 2017, published 2022).

Each compound was assayed against T1, hFXR (Homo sapiens, UniProt Q96RI1) (assay: In Vitro FXR Assay (TK): TK-ECRE-luc reporter in transfected CV-1 cells). Settings: 18 hrs, luminescence, maximum efficacy of <25% of the Fexarmine control classified as '+'.
T1 construct: expressed in transfected cells; host or cells: CV-1 cells
T1 sequence (Q96RI1 1-486): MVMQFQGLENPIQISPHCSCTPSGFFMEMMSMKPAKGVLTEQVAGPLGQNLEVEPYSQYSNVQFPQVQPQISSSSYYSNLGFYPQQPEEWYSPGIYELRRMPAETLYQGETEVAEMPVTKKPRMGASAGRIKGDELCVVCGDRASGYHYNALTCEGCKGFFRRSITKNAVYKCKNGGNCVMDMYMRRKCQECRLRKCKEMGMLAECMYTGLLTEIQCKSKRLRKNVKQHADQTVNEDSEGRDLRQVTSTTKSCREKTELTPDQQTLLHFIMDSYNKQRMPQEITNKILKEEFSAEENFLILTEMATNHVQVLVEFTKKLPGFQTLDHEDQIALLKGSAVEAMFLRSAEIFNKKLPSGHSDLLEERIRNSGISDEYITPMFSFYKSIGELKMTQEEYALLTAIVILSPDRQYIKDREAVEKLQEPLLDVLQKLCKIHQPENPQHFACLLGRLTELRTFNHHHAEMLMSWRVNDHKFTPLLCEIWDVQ
T1 sequence (P19793 1-462 partner): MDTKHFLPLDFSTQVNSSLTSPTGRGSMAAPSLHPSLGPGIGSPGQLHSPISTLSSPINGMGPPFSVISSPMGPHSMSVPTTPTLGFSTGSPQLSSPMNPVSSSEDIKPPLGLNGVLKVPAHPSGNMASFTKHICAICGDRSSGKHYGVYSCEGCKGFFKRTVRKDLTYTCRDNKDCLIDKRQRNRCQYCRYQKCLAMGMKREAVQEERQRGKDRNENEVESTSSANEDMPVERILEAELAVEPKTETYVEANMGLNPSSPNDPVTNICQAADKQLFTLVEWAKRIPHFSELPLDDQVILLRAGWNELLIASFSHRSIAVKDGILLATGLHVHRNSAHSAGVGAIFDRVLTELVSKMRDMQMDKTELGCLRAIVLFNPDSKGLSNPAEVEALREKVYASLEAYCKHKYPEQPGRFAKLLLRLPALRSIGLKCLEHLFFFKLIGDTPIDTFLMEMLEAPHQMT
Format: cell-based
Outline: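 Transiently transfected monkey CV-1 cells (hFXR, hRXR, TK-ECRE-luciferase, YFP control plasmid), held in stripped-serum DMEM, received compound dilutions from DMSO for 18 h at 37 °C. Activity was taken from luminescence of the cell lysates.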

EC50, ≤ 250 nM:
CNC(=O)O[C@H]1CC[C@H](C(=O)N(C[C@H]2CC[C@H](c3ccc(OC)c(C#N)c3)CC2)c2cc(-c3cnn(C4CC4)c3)ccn2)CC1 [Compound 5.17, trans-4-(((trans-4-(3-Cyano-4-methoxyphenyl)cyclohexyl)methyl)(4-(1-cyclopropyl-1H-pyrazol-4-yl)pyridin-2-yl)carbamoyl)cyclohexyl methylcarbamate]
CNC(=O)O[C@H]1CC[C@H](C(=O)N(C[C@H]2CC[C@H](c3ccc(OC)c(C#N)c3)CC2)c2cc(-c3cnn(C(C)C)c3)ccn2)CC1 [Compound 5.18, trans-4-(((trans-4-(3-Cyano-4-methoxyphenyl)cyclohexyl)methyl)(4-(1-isopropyl-1H-pyrazol-4-yl)pyridin-2-yl)carbamoyl)cyclohexyl methylcarbamate]
CNC(=O)O[C@H]1CC[C@@H](C(=O)N(CC2CCC(c3ccc(OC)c(C#N)c3)CC2)c2cc(-c3cnn(C(C)C)c3)ccn2)CC1 (stereo partly drawn) [Compound 5.19, cis-4-(((4-(3-Cyano-4-methoxyphenyl)cyclohexyl)methyl)(4-(1-isopropyl-1H-pyrazol-4-yl)pyridin-2-yl)carbamoyl)cyclohexyl methylcarbamate]
CNC(=O)O[C@H]1CC[C@H](C(=O)N(C[C@H]2CC[C@H](c3ccc(OC)c(C)n3)CC2)c2cccc(-c3cnn(C(C)(C)C)c3)c2)CC1 [Compound 5.20, trans-4-((3-(1-(tert-Butyl)-1H-pyrazol-4-yl)phenyl)((trans-4-(5-methoxy-6-methylpyridin-2-yl)cyclohexyl)methyl)carbamoyl)cyclohexyl methylcarbamate]
CNC(=O)O[C@H]1CC[C@H](C(=O)N(C[C@H]2CC[C@H](c3ccc(OC)c(C)n3)CC2)c2cccc(-c3cnn(C4CCC4)c3)c2)CC1 [Compound 5.21, trans-4-((3-(1-Cyclobutyl-1H-pyrazol-4-yl)phenyl)((trans-4-(5-methoxy-6-methylpyridin-2-yl)cyclohexyl)methyl)carbamoyl)cyclohexyl methylcarbamate]
COc1ccc([C@H]2CC[C@H](CN(c3cccc(-c4cnn(C5CC5)c4)c3)C(=O)[C@H]3CC[C@H](OC(=O)N(C)C)CC3)CC2)cc1C [Compound 5.22, trans-4-((3-(1-Cyclopropyl-1H-pyrazol-4-yl)phenyl)((trans-4-(4-methoxy-3-methylphenyl)cyclohexyl)methyl)carbamoyl)cyclohexyl dimethylcarbamate]
CNC(=O)O[C@H]1CC[C@H](C(=O)N(C[C@H]2CC[C@H](c3ccc(OC)c(C#N)n3)CC2)c2cccc(-c3cnn(C4CC4)c3)c2)CC1 [Compound 5.23, trans-4-(((trans-4-(6-Cyano-5-methoxypyridin-2-yl)cyclohexyl)methyl)(3-(1-cyclopropyl-1H-pyrazol-4-yl)phenyl)carbamoyl)cyclohexyl methylcarbamate]
CNC(=O)O[C@H]1CC[C@H](C(=O)N(C[C@H]2CC[C@H](c3ccc(OC)c(C)n3)CC2)c2cc(-c3cnn(C(C)C)c3)ccn2)CC1 [Compound 5.24, trans-4-((4-(1-Isopropyl-1H-pyrazol-4-yl)pyridin-2-yl)((trans-4-(5-methoxy-6-methylpyridin-2-yl)cyclohexyl)methyl)carbamoyl)cyclohexyl methylcarbamate]
CCNC(=O)O[C@H]1CC[C@H](C(=O)N(C[C@H]2CC[C@H](c3ccc(OC)c(C)n3)CC2)c2cc(-c3cnn(C(C)C)c3)ccn2)CC1 [Compound 5.25, trans-4-((4-(1-Isopropyl-1H-pyrazol-4-yl)pyridin-2-yl)((trans-4-(5-methoxy-6-methylpyridin-2-yl)cyclohexyl)methyl)carbamoyl)cyclohexyl ethylcarbamate]
CNC(=O)O[C@H]1CC[C@H](C(=O)N(C[C@H]2CC[C@H](c3ccc(OC)c(C#N)n3)CC2)c2cc(-c3cnn(C(C)C)c3)ccn2)CC1 [Compound 5.26, trans-4-(((trans-4-(6-Cyano-5-methoxypyridin-2-yl)cyclohexyl)methyl)(4-(1-isopropyl-1H-pyrazol-4-yl)pyridin-2-yl)carbamoyl)cyclohexyl methylcarbamate]
CNC(=O)O[C@H]1CC[C@H](C(=O)N(C[C@H]2CC[C@H](c3ccc(OC)c(C#N)n3)CC2)c2cc(-c3cnn(C4CC4)c3)ccn2)CC1 [Compound 5.27, trans-4-(((trans-4-(6-Cyano-5-methoxypyridin-2-yl)cyclohexyl)methyl)(4-(1-cyclopropyl-1H-pyrazol-4-yl)pyridin-2-yl)carbamoyl)cyclohexyl methylcarbamate]
CNC(=O)O[C@H]1CC[C@H](C(=O)N(C[C@H]2CC[C@H](c3ccc(OC)c(C#N)n3)CC2)c2cccc(-c3cnn(C(C)C)c3)c2)CC1 [Compound 5.28, trans-4-(((trans-4-(6-Cyano-5-methoxypyridin-2-yl)cyclohexyl)methyl)(3-(1-isopropyl-1H-pyrazol-4-yl)phenyl)carbamoyl)cyclohexyl methylcarbamate]
CCNC(=O)O[C@H]1CC[C@H](C(=O)N(C[C@H]2CC[C@H](c3ccc(OC)c(C#N)n3)CC2)c2cc(-c3cnn(C(C)C)c3)ccn2)CC1 [Compound 5.29, trans-4-(((trans-4-(6-Cyano-5-methoxypyridin-2-yl)cyclohexyl)methyl)(4-(1-isopropyl-1H-pyrazol-4-yl)pyridin-2-yl)carbamoyl)cyclohexyl ethylcarbamate]
CNC(=O)O[C@H]1CC[C@H](C(=O)N(C[C@H]2CC[C@H](c3ccc(OC)c(C)c3)CC2)c2cccc(-c3coc(C(C)C)n3)c2)CC1 [Compound 5.30, trans-4-((3-(2-Isopropyloxazol-4-yl)phenyl)((trans-4-(4-methoxy-3-methylphenyl)cyclohexyl)methyl)carbamoyl)cyclohexyl methylcarbamate]
CNC(=O)O[C@H]1CC[C@H](C(=O)N(C[C@H]2CC[C@H](c3ccc(OC)c(C)n3)CC2)c2cccc(-c3coc(C(C)C)n3)c2)CC1 [Compound 5.31, trans-4-((3-(2-Isopropyloxazol-4-yl)phenyl)((trans-4-(5-methoxy-6-methylpyridin-2-yl)cyclohexyl)methyl)carbamoyl)cyclohexyl methylcarbamate]
CNC(=O)O[C@H]1CC[C@H](C(=O)N(C[C@H]2CC[C@H](c3ccc(OC)c(C)n3)CC2)c2cccc(-c3coc(C4CC4)n3)c2)CC1 [Compound 5.32, trans-4-((3-(2-Cyclopropyloxazol-4-yl)phenyl)((trans-4-(5-methoxy-6-methylpyridin-2-yl)cyclohexyl)methyl)carbamoyl)cyclohexyl methylcarbamate]
CNC(=O)O[C@H]1CC[C@H](C(=O)N(C[C@H]2CC[C@H](c3ccc(OC)c(C)c3)CC2)c2cc(-c3coc(C4CC4)n3)ccn2)CC1 [Compound 5.33, trans-4-((4-(2-Cyclopropyloxazol-4-yl)pyridine-2-yl)((trans-4-(4-methoxy-3-methylphenyl)cyclohexyl)methyl)carbamoyl)cyclohexyl methylcarbamate]
CNC(=O)O[C@H]1CC[C@H](C(=O)N(C[C@H]2CC[C@H](c3ccc(OC)c(C)n3)CC2)c2cc(-c3coc(C4CC4)n3)ccn2)CC1 [Compound 5.34, trans-4-((4-(2-Cyclopropyloxazol-4-yl)pyridine-2-yl)((trans-4-(5-methoxy-6-methylpyridin-2-yl)cyclohexyl)methyl)carbamoyl)cyclohexyl methylcarbamate]
CNC(=O)O[C@H]1CC[C@H](C(=O)N(C[C@H]2CC[C@H](c3ccc(OC)c(C#N)c3)CC2)c2cccc(-c3coc(C4CC4)n3)c2)CC1 [Compound 5.35, trans-4-(((trans-4-(3-Cyano-4-methoxyphenyl)cyclohexyl)methyl)(3-(2-cyclopropyloxazol-4-yl)phenyl)carbamoyl)cyclohexyl methylcarbamate]
CNC(=O)O[C@H]1CC[C@H](C(=O)N(C[C@H]2CC[C@H](c3ccc(OC)c(C)c3)CC2)c2cccc(-c3ccc(N(C)C)nc3)c2)CC1 [Compound 5.36, trans-4-((3-(6-(Dimethylamino)pyridine-3-yl)phenyl)((trans-4-(4-methoxy-3-methylphenyl)cyclohexyl)methyl)carbamoyl)cyclohexyl methylcarbamate]
